For orientation: IC50 means the point on the concentration scale where inhibition reaches its midpoint. As usually defined, the Ki is the equilibrium dissociation constant of an inhibitor or competing ligand from its target. A high value points to weaker binding.

Nine molecules from US12479827B2, “Heteroaromatic carboxamide derivatives as plasma kallikrein inhibitors” (Boehringer Ingelheim International GmbH, priority 2020, dated 2025) can be followed below.

What all share (type): biochemical
In experiment [1] the target is T1, Human PKK (Homo sapiens, UniProt P03952).
T1 construct: purchased Enzyme Research Laboratories
T1 sequence (P03952 20-390 limits assumed): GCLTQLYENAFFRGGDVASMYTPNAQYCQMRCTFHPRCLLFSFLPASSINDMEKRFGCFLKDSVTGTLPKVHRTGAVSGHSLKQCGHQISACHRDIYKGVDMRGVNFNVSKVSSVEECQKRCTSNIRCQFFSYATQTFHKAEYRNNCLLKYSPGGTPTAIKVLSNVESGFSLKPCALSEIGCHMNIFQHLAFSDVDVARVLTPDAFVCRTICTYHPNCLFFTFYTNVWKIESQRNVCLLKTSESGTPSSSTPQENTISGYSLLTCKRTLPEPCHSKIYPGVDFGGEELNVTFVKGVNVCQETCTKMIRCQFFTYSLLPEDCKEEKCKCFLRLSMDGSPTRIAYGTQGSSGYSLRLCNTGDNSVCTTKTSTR
T1 sequence (P03952 391-638 limits assumed): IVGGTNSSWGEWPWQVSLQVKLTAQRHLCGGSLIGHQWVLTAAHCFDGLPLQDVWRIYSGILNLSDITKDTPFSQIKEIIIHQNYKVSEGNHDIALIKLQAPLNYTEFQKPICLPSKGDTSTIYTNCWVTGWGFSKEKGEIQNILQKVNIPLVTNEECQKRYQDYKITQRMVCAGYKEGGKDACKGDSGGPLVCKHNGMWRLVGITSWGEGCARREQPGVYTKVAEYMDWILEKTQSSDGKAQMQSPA
In words: Inhibition of PKK using an endpoint assay (human PKK). Particulars: fluorogenic substrate H-Pro-Phe-Arg-AMC, 1 h room temperature, method names human or rat PKK, table does not say which. In outline:
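Endpoint fluorescence (ex 355 nm, em 460 nm) after stopping with 1 μM final PPACK II. Buffer: Tris 100 mM pH 7.8, NaCl 150 mM, BSA 0.1%, Tween20 0.05%, with 1% DMSO present; enzyme is human plasma kallikrein.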

For experiment [2], the target named is T2, human TK1 (Homo sapiens, UniProt P06870).
T2 construct: purchased R&D Systems
T2 sequence (P06870 25-262): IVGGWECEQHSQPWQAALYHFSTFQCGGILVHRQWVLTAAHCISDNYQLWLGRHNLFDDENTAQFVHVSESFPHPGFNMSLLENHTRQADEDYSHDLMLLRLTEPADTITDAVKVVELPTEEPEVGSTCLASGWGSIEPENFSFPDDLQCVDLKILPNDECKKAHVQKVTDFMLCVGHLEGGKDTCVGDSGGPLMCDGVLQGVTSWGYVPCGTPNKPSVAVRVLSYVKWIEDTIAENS
In words: Inhibition of TK1 (Ki). Conditions: activated human TK1, substrate H-Pro-Phe-Arg-AMC, 24° C. The method, then: The ability of compounds of formula (I) to inhibit plasma kallikrein (PKK), Factor XIIa (FXIIa), Factor XIa (FXIa), Factor Xa (FXa), Factor IIa (alpha-thrombin; FIIa), plasmin, trypsin, tissue kallikrein 1 (TK1), Factor VIIa (FVIIa), or FVIIa complexed with Tissue Factor, phospholipids and CaCl2 (FVIIa/TF/PL/CaCl2) is determined using the following biochemical assays in assay buffer (100 mM Tris, 150 mM NaCL, adjusted to a pH of 7.8 with HCl, and containing 0.1% (w/v) BSA and 0.05% (v/v) Tween20) in the presence of 1% (v/v) DMSO:
Prior to the assay, human TK1 (R&D Systems) is activated by incubation with human trypsin (Calbiochem) in a 1:10,000 ratio for 15 min at 37° C. For assaying TK1 inhibitory activity, activated TK1 (31.25 nM or 1 U/mL) is incubated at 24° C. with 0.1 mM fluorogenic substrate H-Pro-Phe-Arg-AMC (11295 from Bachem) and various concentrations of the test compound in assay buffer. Measurements are performed in a kinetic interval every 2nd minute for 16 min using a Spectramax M5 (Molecular Devices) with the following settings of the wavelength excitation of 350 nm and wavelength emission of 450 nm.
The pIC50 values are then fitted using a four-parametric fitting procedure using GraphPad Prism (version 6; GraphPad Software, Inc.). Respective Ki values are obtained by correction of the IC50 values for the respective KM value of the used substrate (see Table A for the obtained KM values of the used substrates) using the following formula:
[formula] Where the IC50 is in molar and the KM value in mM.

The target of experiment [3] is T3, PKK in kaolin activated human platelet poor plasma (Homo sapiens, UniProt P03952).
T3 construct: Platelet poor plasma (PPP) obtained from human wholeblood; from tissue
T3 sequence (P03952 391-638 limits assumed): as the sequence (P03952 391-638 limits assumed) above
T3 sequence (P03952 20-390 limits assumed): as the sequence (P03952 20-390 limits assumed) above
In words: Inhibition of PKK in kaolin activated human PPP.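 Also: readout is the rate of fluorogenic substrate cleavage in rfu per min.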 Particulars: 25-750 μg/mL kaolin, global fit, text b200 calls the values IC90. The method, then: Platelet poor plasma (PPP) obtained from human wholeblood, anticoagulated with Na-Citrate, is incubated with various concentrations of the test compound together with either 25, 75, 250, or 750 μg/mL kaolin in assay buffer for 20 min at 37° C. such that for each kaolin dose used a concentration response is obtained for the test compound.

Consider `Cn1cnc2c1CC[C@H]2NC(=O)c1cn(Cc2cnc(N3CC4CC4C3)cc2Cl)cn1` (stereo partly drawn) [Example 120, 1-[(6-{3-Azabicyclo[3.1.0]hexan-3-yl}-4-chloropyridin-3-yl)methyl]-N-[(4R)-1-methyl-1H,4H,5H,6H-cyclopenta[d]imidazol-4-yl]-1H-imidazole-4-carboxamide], for which the IC50 in experiment [1] was 2.4 nM; in experiment [3], 934 nM. The Ki in experiment [2] is > 10000 nM.

Regarding `Cc1nc(N2CC3CC3C2)ccc1Cn1cc(C(=O)N[C@@H]2CCc3c2ncn3C)c(C(C)(C)O)n1` (stereo partly drawn) [Example 125, 1-[(6-{3-Azabicyclo[3.1.0]hexan-3-yl}-2-methylpyridin-3-yl)methyl]-3-(2-hydroxypropan-2-yl)-N-[(4R)-1-methyl-1H,4H,5H,6H-cyclopenta-[d]imidazol-4-yl]-1H-pyrazole-4-carboxamide], the figures for the IC50 in experiment [1] and in experiment [3] were 1.1 nM and 2740 nM, respectively. For the same molecule, the inhibition constant Ki in experiment [2] is > 10000 nM.

As for `CCc1nc(N2CC3CC3C2)ccc1Cn1cnc(C(=O)N[C@@H]2CCc3c2ncn3C)c1` (stereo partly drawn) [Example 75, 1-[(6-{3-Azabicyclo[3.1.0]hexan-3-yl}-2-ethylpyridin-3-yl)methyl]-N-[(4R)-1-methyl-1H,4H,5H,6H-cyclopenta[d]imidazol-4-yl]-1H-imidazole-4-carboxamide], the IC50 in experiment [1] came out at 0.5 nM; in experiment [3], 192 nM. The Ki in experiment [2] was > 10000 nM.

Regarding `Cn1cnc2c1CC[C@H]2NC(=O)c1cn(Cc2ccc(N3CC4CC4C3)nc2Cl)cn1` (stereo partly drawn) [Example 122, 1-[(6-{3-Azabicyclo[3.1.0]hexan-3-yl}-2-chloropyridin-3-yl)methyl]-N-[(4R)-1-methyl-1H,4H,5H,6H-cyclopenta[d]imidazol-4-yl]-1H-imidazole-4-carboxamide], the IC50 in experiment [1] turned out to be 1.5 nM; in experiment [3] it was 492 nM. For the same molecule, the Ki in experiment [2] was > 10000 nM.

On to `Cn1cnc2c1CC[C@H]2NC(=O)c1cnn(Cc2ccc(N3CC4CC4C3)nc2)c1` (stereo partly drawn) [Example 131, 1-[(6-{3-Azabicyclo[3.1.0]hexan-3-yl}pyridin-3-yl)methyl]-N-[(4R)-1-methyl-1H,4H,5H,6H-cyclopenta[d]imidazol-4-yl]-1H-pyrazole-4-carboxamide], for which the IC50 turned out to be 4.3 nM in experiment [1] and 962 nM in experiment [3]. The Ki in experiment [2] was > 10000 nM.

With `Cc1nc(N2CC3C(C2)C3(F)F)ccc1Cn1cc(C(=O)N[C@@H]2CCc3c2ncn3C)nn1` (stereo partly drawn) [Example 27, 1-[(6-{6,6-Difluoro-3-azabicyclo[3.1.0]hexan-3-yl}-2-methylpyridin-3-yl)methyl]-N-[(4R)-1-methyl-1H,4H,5H,6H-cyclopenta[d]imidazol-4-yl]-1H-1,2,3-triazole-4-carboxamide], the IC50 in experiment [1] was determined as 0.9 nM; in experiment [3], 202 nM. In experiment [2], the Ki is > 10000 nM.

`Cc1nc(N2CC3C(C2)C3(F)F)ncc1Cn1cc(C(=O)N[C@@H]2CCc3c2ncn3C)cn1` (stereo partly drawn) [Example 218, 1-[(2-{6,6-Difluoro-3-azabicyclo[3.1.0]hexan-3-yl}-4-methylpyrimidin-5-yl)methyl]-N-[(4R)-1-methyl-1H,4H,5H,6H-cyclopenta[d]imidazol-4-yl]-1H-pyrazole-4-carboxamide]: the figures for the concentration for half-maximal inhibition (IC50) in experiment [1] and in experiment [3] were 3.5 nM and 646 nM, respectively. For the same molecule, in experiment [2], the Ki is > 10000 nM.

In the case of `CCc1nc(N2CC3(CC3)C2)ccc1Cn1cc(C(=O)N[C@@H]2CCc3c2ncn3C)nn1` [Example 20, 1-[(6-{5-Azaspiro[2.3]hexan-5-yl}-2-ethylpyridin-3-yl)methyl]-N-[(4R)-1-methyl-1H,4H,5H,6H-cyclo-penta[d]imidazol-4-yl]-1H-1,2,3-triazole-4-carboxamide], the IC50 in experiment [1] was 0.7 nM; in experiment [3], 99 nM. Further, the Ki in experiment [2] was > 10000 nM.

Turning to `Cc1c(Cn2cc(C(=O)N[C@@H]3CCc4c3ncn4C)cn2)cnc(N2CC3CC3C2)c1C#N` (stereo partly drawn) [Example 116, 1-[(6-{3-Azabicyclo[3.1.0]hexan-3-yl}-5-cyano-4-methylpyridin-3-yl)methyl]-N-[(4R)-1-methyl-1H,4H,5H,6H-cyclopenta[d]imidazol-4-yl]-1H-pyrazole-4-carboxamide], the values for the IC50 in experiment [1] and in experiment [3] were 0.4 nM and 278 nM, respectively. This molecule returned a Ki in experiment [2] of 871 nM.
